Measured values as given in patent US20110319451A1, “5-Ht6 Receptor and Modulators Thereof for the Treatment of Insulin-Related Disorders” (priority 2008, published 2011).

Tests used:
DIO female rats = conditions: cited from earlier work; for cumulative weekly food intake: DIO female rats; for weight-loss versus control: after 28 days of administration, DIO rats
female DIO rat model = conditions: cited from earlier work
rat 5-HT6 receptor = rat 5-HT6 receptor (Rattus norvegicus, UniProt P31388); conditions: cited from earlier work
[1] = biological target: cloned human 5-HT6 subtype (Homo sapiens, UniProt P50406); conditions: cited from earlier work
5-HT6 receptor = 5-HT6 receptor (Homo sapiens, UniProt P50406); conditions: cited from earlier work
[2] = tested on: normal lean and DIO female rats; conditions: cited from earlier work
C57/Bl6 mice = experiment: oral glucose tolerance test (oGTT) in C57/Bl6 mice; assay type: in vivo, mouse; conditions: 1, 3.3 or 10 mpk oral, 30 min before glucose bolus 3 gram/kg, FIG. 5
Procedure: (§1) Thirty minutes later, a glucose bolus (3 gram/kg) was then delivered per orally. Plasma glucose levels were determined at indicated time points over a two hour period using blood (˜5 μl) collected from tail nick and a glucose meter. Glycemic excursion curve was graphed based on data from 6 mice and given in mean values +/−SEM (FIG. 5 upper left panel).

[3] = tested on: db/db mutant diabetic mice; experiment: oGTT in diabetic db/db mice; assay type: in vivo, mouse; conditions: 3.3, 10 or 30 mpk oral, glucose bolus 2 gram/kg, FIG. 8
Procedure: as §1, with “(2” for “(3”, “+/−SEM.” for “+/−SEM (FIG. 5 upper left panel).”

C57bl/6 male mice [4] = experiment: insulin release in response to a glucose bolus in mice; assay type: in vivo, mouse; conditions: 10 mpk oral; 5, 10 and 20 minutes after glucose bolus 3 g/kg, FIG. 5
Procedure: C57bl/6 male mice (8 weeks of age) were fasted for 18 hours, and randomly assigned into eight groups with n=6 for each group. Mice were administered per orally with vehicle (20% HPCD) or with 10 mpk EMD 386088. After 30 minutes, a glucose bolus of 3 g/kg was administered orally. Blood was collected in heparinated blood collection tubes at 0 minute (no glucose bolus), 5 minutes, 10 minutes, and 20 minutes after glucose bolus. Plasma samples were obtained via centrifugation at 500×g for 20 minutes and assayed for insulin using an Ultra Sensitive Insulin ELISA kit (Crystal Chem. Inc., Downers Grove, Ill.).

C57bl/6 male mice [5] = experiment: plasma glucose levels (hypoglycemia) in fasted mice; assay type: in vivo, mouse; conditions: 10 mpk or 30 mpk oral, 0-120 minutes post-dosing, FIG. 7
Procedure: Plasma glucose levels were determined at 0 minute (right before dosing), and 30, 60, 90, and 120 minutes post-dosing using blood (˜5 μl) collected from tail nick and a glucose meter. Glycemic changes were graphed based on data from 6 mice and given in mean values +/−SEM.

[6] = 30 mg/kg i.p., daily for 3 days, growing rats; cited from earlier work

Sequence of rat 5-HT6 receptor (P31388 whole entry): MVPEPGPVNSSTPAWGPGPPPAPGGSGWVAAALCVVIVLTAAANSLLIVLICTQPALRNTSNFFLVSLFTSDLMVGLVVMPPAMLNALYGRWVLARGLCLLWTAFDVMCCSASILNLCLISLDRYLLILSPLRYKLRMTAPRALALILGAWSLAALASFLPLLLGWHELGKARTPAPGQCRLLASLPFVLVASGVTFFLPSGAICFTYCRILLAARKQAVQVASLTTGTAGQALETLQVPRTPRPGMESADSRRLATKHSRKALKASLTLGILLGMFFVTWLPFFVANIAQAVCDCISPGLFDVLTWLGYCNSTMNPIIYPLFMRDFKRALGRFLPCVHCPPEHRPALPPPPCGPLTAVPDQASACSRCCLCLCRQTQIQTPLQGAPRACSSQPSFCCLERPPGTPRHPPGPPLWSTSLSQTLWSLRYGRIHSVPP
Sequence of 5-HT6 receptor (P50406 whole entry): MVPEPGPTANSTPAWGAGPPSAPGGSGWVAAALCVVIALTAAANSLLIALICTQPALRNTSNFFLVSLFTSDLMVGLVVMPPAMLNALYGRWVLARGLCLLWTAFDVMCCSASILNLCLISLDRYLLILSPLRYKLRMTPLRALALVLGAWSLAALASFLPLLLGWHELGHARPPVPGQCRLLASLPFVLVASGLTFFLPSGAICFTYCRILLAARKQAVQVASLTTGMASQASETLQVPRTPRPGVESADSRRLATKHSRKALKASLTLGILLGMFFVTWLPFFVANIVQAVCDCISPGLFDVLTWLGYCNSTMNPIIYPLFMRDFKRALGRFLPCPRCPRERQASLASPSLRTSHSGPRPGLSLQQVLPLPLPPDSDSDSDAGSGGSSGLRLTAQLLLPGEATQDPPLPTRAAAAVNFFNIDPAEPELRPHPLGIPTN
Sequence of cloned human 5-HT6 subtype (P50406 whole entry): as above

## CN(C)CCc1c[nH]c2ccc(NS(=O)(=O)c3ccc4c(Cl)cccc4c3)cc12 [Compound E-6837]
DIO female rats
  cumulative weekly food intake: significantly decreased consumption during the first, second and third weeks of treatment
  weight-loss versus control: 15.7%
DIO female rats; rat, in vivo
  body composition of weight-loss: selective reduction in body fat with no changes in either water or protein content
Female DIO rat model
  food intake and adiposity: reduce food intake and adiposity
Rat 5-HT6 receptor
  functionality at rat 5-HT6 receptor: partial agonist
[1]
  functionality at cloned human 5-HT6 subtype: full agonist

## COc1cc(Cl)cc(C(C)Nc2cc(N3CCNCC3)ccc2S(C)(=O)=O)c1OC.Cl (centres unmarked) [PRX-07034]
5-HT6 receptor
  Ki: 4 nM
[2]; acute studies, normal lean and DIO female rats
  food intake: inhibited food intake
[2]; rat, in vivo
  aversive effect: no aversive effect
Female DIO rat model
  food intake and adiposity: reduce food intake and adiposity

## Cc1[nH]c2ccc(Cl)cc2c1C1=CCNCC1 [Compound A, 5-Chloro-2-methyl-3-(1,2,3,6-tetrahydro-pyridin-4-yl)-1H-indole]
C57/Bl6 mice
  glucose excursion in oGTT: improved glucose excursion in a dose-dependent fashion
[3]
  plasma glucose concentration over time in oGTT compared to control: dose dependent decrease in plasma glucose concentration
C57bl/6 male mice [4]
  insulin release compared to vehicle: increased insulin release
C57bl/6 male mice [5]
  hypoglycemia (plasma glucose levels) compared to control: did not cause hypoglycemia

## CC(C)CC(N(C)C)C1(c2ccc(Cl)cc2)CCC1 (centres unmarked) [sibutramine]
DIO female rats
  cumulative weekly food intake: significantly reduced food intake only during the first week
  weight-loss versus control: 11.0%

## CNc1cc(NS(=O)(=O)c2ccc(N)cc2)nc(NC)n1 [Ro 04-6790]
[6]
  body weight-gain: significantly attenuated body weight-gain
